What all share (format): in vivo
Test [1] can be described thus: Flavor evaluation, tasted in water. As to conditions: tasted in water at 10 ppm. The source says: Based on this flavor evaluation, it is indicative that the Structure I and Structure II of our invention are useful for augmenting, enhancing or imparting a taste or cooling or refreshing effect in or to a cosmetic, skin care product, lip gloss, hair care product, cologne, shaving balm, after-shave lotion, dairy product, fruit ice preparation, confectionery, mouth and throat lozenges, cough mixtures, decongestants, antacids, oral analgesics or other medicinal products, chewing gum, candy (including hard candy and soft candy), fondants, toothpaste, mouthwashes, mineral water, alcoholic beverage, non-alcoholic beverage, powdered beverage, or other foodstuff as a result of adding to a cosmetic, skin care product, lip gloss, hair care product, cologne, shaving balm, after-shave lotion, dairy product, fruit ice preparation, confectionery, lozenges, cough mixtures, decongestants, antacids, oral analgesics or other medicinal product, chewing gum, candy, fondants, toothpaste, mouthwashes, mineral water, alcoholic beverage, non-alcoholic beverage, powdered beverage, or other foodstuff, a taste or cooling or refreshing effect augmenting, enhancing or imparting quantity and concentration of Structure I and Structure II.

Test [2] is described as follows: Evaluation of cooler mixed with fondant. The source says:
In this example, the Structure I and II were mixed with a fondant, commercially available from Confectionary House, Troy, N.Y., at levels listed in Table 1.

Test [3] can be described thus: Chewing gum profiled by trained descriptive analysis panel. As to conditions: level 0.20%. On the procedure:
The following gum base formulation was prepared: […]
The orange flavor is commercially available from IFF. The gum base, Hades-T is commercially available from Cafosa Gum, Barcelona Spain.
Structure I and II by itself at levels detailed in the Tables below was blended with the gum base in a Sigma mixer. The resultant chewing gum blend was then manufactured into strips 1 inch in width and 0.1 inches in thickness. These strips were cut into lengths of 3 inches each.
Samples were profiled by a highly trained descriptive analysis panel. The ballot consisted of the following terms: Total impact, total mint, cooling-mouth closed, cooling-breath in, nasal cooling—breathe in, throat irritation, bitterness, tongue irritation, numbing. Each attribute was rated at discrete time points including 1 minute, 3 minutes, 5 minutes, 10 minutes, 20 minutes, and 30 minutes.

Regarding `CC(C)(C)C1(C(=O)NC2CC2)CCCCC1` [Structure I, 1-tert-butyl-N-cyclopropylcyclohexanecarboxamide], the “Taste description (cooling)” value in test [1] is on record as “gradual onset cooling”. The “COMMENTS (cooling evaluation in fondant)” value in test [2] (50 ppm) was “Slight irritation in rear of throat, slight cooling”; in test [2] (200 ppm), “Moderate cooling, consistent, and slight tingle”.
In the case of `COCCNC(=O)C1(C(C)(C)C)CCCCC1` [Structure II, 1-tert-butyl-N-[2-methoxy-ethyl]cyclohexanecarboxamide], the “Time and Evaluation (cooling in chewing gum)” value in test [3] (0-1 min) is “no perceivable cooling slightly bitter,”; in test [3] (1-3 min) it was “Slight cooling with slight tingle on tongue”; in test [3] (3-5 min) it was “full mouth cooling not very intense, slight”; in test [3] (5-10 min), “slight residual cooling very weak”; in test [3] (10-20 min) it was “still slight cooling, slight tingle”; in test [3] (20-30 min) it was “cooling diminished very weak, very mild”. Besides, the “Taste description (cooling)” value in test [1] is given as “wet cardboard, slightly cooling”. Besides, the “COMMENTS (cooling evaluation in fondant)” value in test [2] (50 ppm) is given as “Slight bitterness, very little cooling”; in test [2] (200 ppm), “Good Cooling low to moderate, slight throat”.

For the origin of these results see patent publication US20110070171A1, “1-tert-Butylcyclohexanecarboxamide and uses thereof as cooling compounds” (priority 2009, published 2011).
